Measurements reported in patent US20190290671A1, “HYPOLIPIDEMIC EFFECTS OF COMPOSITIONS COMPRISING BETA-GLUCOGALLIN” (priority 2018, published 2019).

Assay: body weight of high fat diet fed rats
Assay type: in vivo, Albino Rat (Wistar)
Conditions: HFD + 3 mg/kgbw
Procedure: Performance of the Test • Feed: The animals were fed with Normal diet (9 kcal/day) and High fat diet (50 kcal/day) throughout the acclimatization and experimental period. The normal diet and High Fat diet were prepared as follows.
Body weight of the animals was recorded in 0th, 15th, 25th, 40th, 60th and 84th day of experimental period. At 0th day, 1 ml Tail blood was collected from each animal of all the groups and serum was separated. At the end of the experimental period (84th day), the animals were sacrificed by cervical dislocation. Blood was collected and serum was separated by centrifugation and used for the analysis of biochemical parameters.
The test item was administered through oral route by gavage.
Experimental Methods • Measurement of Body weight • Estimation of Cholesterol (CHOD/POD Method) • Estimation of Triglycerides (GPO/POD Method) • Estimation of HDL Cholesterol (HDL Cholesterol Direct Reagent Kit, Beacon) • Determination of LDL Cholesterol (LDL Cholesterol Direct Reagent Kit, Beacon)

## CC(C)c1c(C(=O)Nc2ccccc2)c(-c2ccccc2)c(-c2ccc(F)cc2)n1CC[C@@H](O)C[C@@H](O)CC(=O)O [STATIN, Atrovastin]
0th Day
  Mean Body Weight: 108.33 ± 6.83 g
15th Day
  Mean Body Weight: 127.50 ± 6.90 g
25th Day
  Mean Body Weight: 139.16 ± 5.84 g
40th Day
  Mean Body Weight: 155.83 ± 7.35 g
60th Day
  Mean Body Weight: 165.83 ± 9.70 g
84th Day
  Mean Body Weight: 172.50 ± 9.35 g
